| SMILES | melting point |
| --- | --- |
| CC(C)NS(=O)(=O)Oc1ccc(F)cc1 | 145 to 146 °C |
| COc1ccc2c(c1)c(-c1cc3nccnc3[nH]1)cn2C | 270 to 272 °C |
| Cc1cc(-c2cccc(C3=Nc4ccc(-c5ccc(F)cc5)cc4NC(=O)C3)c2)on1 | > 250 °C |
| CC(=O)OC1CCC2(CO)C(CCC3C4=CCC(OC(=O)C(C)(C)C)C4(C)CCC32)C1 (configuration not stated) | 133 to 134 °C |
| OC1CSC(Oc2cc(-c3cncnc3)cnc2Cl)C(O)C1O (configuration not stated) | 174 to 189 °C |
| CNc1cc(-n2cc(C(=O)O)c(=O)c3cc(F)c(NC)c(C)c32)c(F)cc1F | 220 to 222 °C |
| O=c1cnc2c(NCCO)nc(SCc3cccc(C(F)(F)F)c3F)nc2[nH]1 | 221 to 222 °C |
| COc1ccc(C#CC(C)N(O)C(N)=O)cc1Oc1ccc(F)cc1 (configuration not stated) | 139 to 140 °C |
| C=CCOC(=O)c1c(Oc2nc(OC)cc(OC)n2)ccc2[nH]c(C)c(N)c12 | 132 to 135 °C |
| Cc1cccc(-c2nc(CCOc3ccc(CCCC4OC(=O)NC4=O)cc3)c(C)o2)c1 (configuration not stated) | 149 to 150 °C |
| CN(CCOc1ccc(Cn2cc(CCC(=O)O)c(-c3ccccc3)n2)cc1)c1ccccn1 | 110 to 111 °C |
| CCCN(CCC)Cc1nnc(-c2ncn3c2[C@@H]2CCN2C(=O)c2c(Cl)cccc2-3)o1 | 134 to 136 °C |
| C=Cc1c(C)c2cc3nc(c4c5[nH]c(cc6nc(cc1[nH]2)C(C)=C6CC)c(C)c5C(=O)C4)C(CCC(=O)OC)C3C (configuration not stated) | 217 to 219 °C |
| Cc1nc[nH]c1CSCCNc1cc[nH]c(=O)n1 | 249 to 251 °C |
| CCS(=O)(=O)c1cnc2c(c1)nc(CC(C)(C)C)n2CC1CCOCC1 | 191 °C |
| CCCCCCCCCNC(=O)NCC(=O)O | 144 to 145 °C |
| N#Cc1ccc(-c2nc(COc3ccc(CCCn4ccnc4)cc3)co2)s1 | 73 to 74 °C |
| Cc1oc(-c2ccc(-c3ccc(-c4nc(CCO)c(C)o4)cc3)cc2)nc1CCO | 134 to 135 °C |
| CCC(CC)N(O)C(=O)NC(C)(C)c1cccc(C(C)(C)NC(=O)N(O)C(CC)CC)c1 | 170 to 172 °C |
| Cc1cc2c(s1)S(=O)(=O)NC2=O | 231 °C |
| Cc1ccc(F)cc1C(=O)Nc1ccc(C(=O)N2CCC=Cc3sccc32)c(Cl)c1 | 125 to 132 °C |
| COC(=O)c1c(Cl)cc(Cl)cc1NC(=O)CSc1ccc(NC(=O)Cc2cccc(Br)c2)cc1 | 177 to 180 °C |
| CC(C)(C)N1CC2(CCNCC2)OC1=O | 108 to 111 °C |
| COc1c(N2CC(C)[C@@](N)(CF)C2)c(F)cc2c(=O)c(C(=O)O)cn([C@@H]3C[C@@H]3F)c12 (some centres not stated) | 167 to 169 °C |
| COP1(=O)CC(O)C(Cl)C1 (configuration not stated) | 82 °C |

| SMILES | melting point |
| --- | --- |
| COc1ccc(-c2ocnc2-c2cc(OC)c(Cl)c(OC)c2)cc1N | 146 to 148 °C |
| C(=C\c1nc(COc2ccc(Cn3cnnc3)cc2)co1)/c1ccccc1 | 209 to 210 °C |
| COC1C(O)C(CO)OC1n1cnc(C(N)=O)c1N (configuration not stated) | 114 to 117 °C |
| NC(=O)c1cnc2n(c1=O)CCC2 | 293 °C |
| C#CCOCC(C)(COCC#C)NC(=O)C(Oc1ccc2ncc(C#C)cc2c1)SC (configuration not stated) | 95 to 100 °C |
| Cn1nc(C(F)(F)F)c(C(=O)CC#N)c1Cl | 103 to 105 °C |
| CCOC(=O)c1cc(CBr)ccc1S(=O)(=O)NC(=O)Nc1nc(OC)cc(OC)n1 | 195 to 197 °C |
| Cc1cc2c(Cl)c([N+](=O)[O-])cnc2s1 | 96 to 98 °C |
| CCOCc1nc2c(N)nc3ccccc3c2n1CCCCCS(=O)(=O)N(C)C | 138 to 142 °C |
| CCCCCCCCC(SCCCCCC)C(=O)Nc1c(SC)cc(NC(C)=O)c2ncc(C)cc12 (configuration not stated) | 128 to 131 °C |
| CCCCCCCOc1ccc(CCC(CO)(CCC)NC(=O)c2cc([N+](=O)[O-])cc([N+](=O)[O-])c2)cc1 (single isomer, unassigned; (-)) | 115 to 116 °C |
| COc1nc(CNC(=O)NS(=O)(=O)c2ccccc2S(=O)(=O)N(C)C)nc(OC)n1 | 183 to 189 °C |
| C=CCC(CC=C)n1c(CC)nc2c1c(=O)n(C)c(=O)n2-c1ccc(Cl)cc1Cl | 145 to 146 °C |
| CN(CC(=O)OC(C)(C)C)Cc1ccc(CCn2cnc3cc(-c4ccc(Cl)cc4)sc3c2=O)cc1 | 130 °C |
| O=C(OO)c1cccc(Cl)c1 | 127 to 129 °C |
| COc1ccc(Nc2ccn(-c3ccc(OCC(=O)O)cc3)n2)cc1 | 163 to 165 °C |
| COc1ccc(Br)cc1OCCCCCc1ccc(F)cc1 | 46 to 47 °C |
| Cc1nc(CS(C)=O)nc(OC(=O)N(C)C)c1C(C)C (configuration not stated) | 80 °C |
| Cc1c(Cc2ccc(C(C)C)cc2)c2c(c(C)c1NC(=O)CC(C)(C)C)C(C)(O)C(C)(C)O2 (configuration not stated) | 170 to 171 °C |
| Cn1nc(-c2cnc3[nH]cc(C(=O)NCC(C)(C)CO)c3n2)c2ccc(F)cc21 | 291 to 293 °C |
| ClCc1cccc2c1CCCC2 | 51 to 52 °C |
| COc1ccc(NC(=O)Nc2ccc(Cl)c(Cl)c2)cc1NC(=S)Nc1cc(Cl)cc(Cl)c1 | 202 °C |
| C=CCc1cc(-c2csc(-c3ccc(OCC)c(OCC)c3)n2)cc(C(=O)OC)c1O | 118 to 119 °C |
| CCCCCCCCCCCCc1c2c(=O)c3cc(-c4cccs4)ccc3c2c(CCCCCCCCCCCC)c2c(=O)c3cc(-c4cccs4)ccc3c12 | 205 to 206 °C |

Now from value to compound:

| melting point | SMILES |
| --- | --- |
| 222 to 223 °C | CC(CO)n1nc(-c2cnc(N)nc2-c2ccccc2)ccc1=O (configuration not stated) |
| 93 to 102 °C | COc1cn(-c2cc(-c3cnn(C)c3)ccc2F)nc(-c2ccnn2-c2ccccc2)c1=O |
| 420 °C | NS(=O)(=O)c1cccc2c1ccc1nc(O)c(O)nc12 |
| 211 to 212 °C | CC(=O)Nc1c(C(=O)c2ccccn2)[nH]c2cc(Cl)ccc12 |
| 228 °C | O=C(Nc1cccc2c1C(=O)c1c-2n[nH]c1-c1ccc(C(=O)N2CCC(N3CCCC3)CC2)s1)NN1CCOCC1 |
| 189 °C | COC(=O)C1=C(C)NN=C(c2ccccc2)C1c1cccc(Cl)c1 (configuration not stated) |
| 106 to 107 °C | O=C1C=CC(=O)C2=C1OCO2 |
| 200 to 204 °C | Cc1ccc(C2(n3ccnc3)c3ccccc3C(=O)c3ccccc32)cc1 |
| 251 to 252 °C | c1ccc(Nc2ccnc3[nH]cnc23)cc1 |
| 136 to 140 °C | O=C1CCc2cccc3c2N1C(=O)CC3 |
| 265 to 268 °C | O=C1Cc2ccc3ccccc3c2C(c2ccccc2F)N1 (configuration not stated) |
| 107 to 108 °C | Cc1cccc([N+](=O)[O-])c1-c1c(C)cccc1[N+](=O)[O-] |
| 315 to 316 °C | O=C1c2ccccc2-n2c1nc1ccc(Br)cc1c2=O |
| 63 to 75 °C | BrCc1ccccc1CCc1ccc(Br)cc1 |
| 203 to 204 °C | O=C(NNC(=O)c1ccnc2[nH]ccc12)OCc1ccccc1 |
| 217 to 218 °C | O=C(O)CCc1oc(-n2cnc3ccccc32)nc1-c1ccc(Cl)cc1 |
| 155 to 156 °C | O=C(CN1CCCNC1=O)N1CCC(C2c3ncc(Br)cc3CCc3cc(Cl)cc(Br)c32)CC1 (single isomer, unassigned; (+)) |
| 205 to 215 °C | CC1(C)Oc2ccc(-c3c(NCCO)c(=O)c3=O)cc2[C@@H](N2Cc3ccccc3C2=O)[C@@H]1O (relative stereo) |
| 129 to 131 °C | C=CCOc1ccccc1C1C(C(=O)OCC)=C(C)NC(C=O)=C1C(=O)OCC (configuration not stated) |
| 203 °C | Cc1cc(C)nc(NC(N)=Nc2ccc(Cl)cc2)n1 |
| 149 to 150 °C | COc1cc2c(cc1O)CCN(CC(=O)c1ccc(OC)c(OC)c1)C2 |
| 126 to 129 °C | O=C1c2ccccc2C(=O)N1[C@H]1C=C[C@@H](O)CC1 (racemic) |
| 176 to 177 °C | COCCO[C@@H]1c2ccn3c(C)c(C)nc3c2N[C@H](c2ccccc2)[C@H]1OC(=O)OC |
| 140 to 141 °C | COc1ccc(Sc2ccc(NC(=N)N)cc2)cc1 |

| melting point | SMILES |
| --- | --- |
| 185 to 190 °C | COC(=O)N1CCN2c3ccc(N4CC(CNC(C)=O)OC4=O)cc3OCC2C1 (configuration not stated) |
| 173 °C | CS(=O)(=O)c1ccc(-c2cc(C(=O)c3ccccc3)sc2N2CCOCC2)cc1 |
| 157 °C | OCCn1c(NC2CCNCC2)nc2cccnc21 |
| 251 to 252 °C | O=C(NCc1cc(C(F)(F)F)cc(C(F)(F)F)c1)c1c(-c2ccccc2)c2ccccc2[nH]c1=O |
| 234 to 236 °C | CNC(=O)c1nn(-c2ccccc2)c(O)c1N=Nc1ccc(S(=O)(=O)NCCCCCCBr)cc1 |
| 163 °C | OC1CCCc2nc3cc(Cl)ccc3c(NCc3ccccc3)c21 (configuration not stated) |
| 157 to 158 °C | CCCc1nn2ncc(C(=O)OCOC(=O)C(C)(C)C)c2n1Cc1ccc(-c2ccccc2-c2nnn[nH]2)cc1 |
| 117 to 119 °C | COC(=O)NC(C)c1cccc(-c2ccc(OC)cc2)c1 (configuration not stated) |
| 109 to 110 °C | CC1(C)C=Cc2c(ccc3c2C(=O)C(=O)C=C3)O1 |
| 38 to 40 °C | COC(=O)c1cnc(N2CCN(Cc3ccccc3)CC2)nc1C |
| 107 to 108 °C | O=[N+]([O-])c1cccc2c(C(F)(F)F)cccc12 |
| 193 °C | CCOC(=O)N1CCC(NC(=S)Nc2cncnc2NCc2ccco2)CC1 |
| 63 to 68 °C | OCCCC(O)c1ccccc1 (configuration not stated) |
| 190 to 195 °C | N#Cc1cc(C(=O)NNC(=O)c2occc2-c2cccc(OCc3ccccc3)c2)ccc1O |
| 210 to 212 °C | CC(C)c1cccc(C(C)C)c1NC(=O)[C@H](Cc1ccccc1)NC(=O)OCC1c2ccccc2-c2ccccc21 |
| 255 to 256 °C | CCn1nc(-c2ccccc2)c(C(C)=O)c(Nc2cccc(C(=O)O)c2Cl)c1=O |
| 280 to 281 °C | O=C1NC(=O)C2(CCS(=O)(=O)c3ccccc32)N1 (configuration not stated) |
| 118 to 122 °C | O=S(=O)(c1cc(SC(F)(F)F)[nH]c1-c1ccc(Cl)cc1)C(F)(F)F |
| 148 °C | COc1ccc(-c2nc(-c3ccc4c(c3)CCCN4C(C)=O)cs2)cc1OC |
| 145 °C | CC(=CC(=O)Nc1ccccc1)Oc1ccccc1 |
| 104 to 105 °C | CCN(CCCN1c2ccccc2N(C)C(=O)c2ccc(C)nc21)C(C)C |
| 158 °C | CN(C)S(=O)(=O)n1cc(-c2ccc(Cl)cc2Cl)nc1C1=NC(=O)C(=O)S1 |
| 150 to 152 °C | Cc1ccc(-c2cn(C)cc(-c3ccc(Cl)c(Cl)c3)c2=O)cc1C |
| 218 to 220 °C | COc1c(N2CC(C)C(N)C(C)(C)C2)c(F)cc2c(=O)c(C(=O)O)cn(C3CC3)c12 (configuration not stated) |
